Test results from patent US7605131B2, “EML4-ALK fusion gene” (Astellas Pharma Inc., priority 2007, dated 2009).
Values belong to the molecule of their own block, whether it stands above or below them.

Experiments:
[1] = target: T1, EML4-ALK fusion polypeptide v3 (Homo sapiens, UniProt Q9UM73, D1529E/I1461V/K1491R); assay: Intracellular autophosphorylation of EML4-ALK fusion polypeptide v3 in v3 expressing 3T3 cells; type: cell-based; details: 4 hours
Description: The EML4-ALK fusion polypeptide v3 expression vector (designated as EML4-ALKv3/pMXS) was constructed by subcloning the insert of the EML4-ALKv3/pT7Blue-2 in pMXS plasmid (JBC 275, 24945-24952, 2000). Also, using the EML4-ALKv3/pT7Blue-2, an expression vector (designated as FLAG-EML4-ALKv3/pMX-iresCD8) which expresses both EML4-ALK fusion polypeptide v3 having the FLAG tag at the N-terminus and CD8 was constructed by subcloning the insert in pMX-iresCD8 plasmid (JBC 276, 39012-39020, 2001). The 3T3 cells transfected with the EML4-ALKv3/pMXS described above were inoculated subcutaneously to nude mice at 5×10^6 cells/mouse and observed after 20 days. […] Hereinafter, the 3T3 cells in which EML4-ALK fusion polypeptide v3 is expressed are designated as the v3 expressing 3T3 cells.

v3 expressing 3T3 cells = assay: Anchorage independent growth of v3 expressing 3T3 cells (spheroid plate, CellTiter-Glo); type: cell-based
Experimental: Measurement for anchorage independent cell growth (colony method, etc) has been known to be a system for investigating an antitumor effect (pharmacologic effect) of compounds (Clinical Oncology, second edition, Cancer and Chemotherapy Publishers Inc.). In place of the colony method, there is a following method using spheroid plates for measuring the growth of non-attached cells.
(§1) The v3 expressing 3T3 cells (Example 2) were seeded to a 96 well spheroid plate (Sumilon Celltight Spheroid 96U, Sumitomo Bakelite Inc.) at 3000 cells per well in a medium (Invitrogen) containing 10% fetal bovine serum. […] At the same time, cells were counted before the addition of drugs (Day 0). Then, cells were cultured under 5% CO2, at 37° C. for 3 days, mixed with a reagent for measuring cell number (CellTiter-Glo™ Luminescent Cell Viability Assay; Promega Inc.) stirred for 20 minutes, and the measurements (day 3) were carried out using a luminometer (ML3000 microtiter plate luminometer; Dynatech Laboratories Inc.).

NCI-H2228 cells = assay: Anchorage independent growth of NCI-H2228 cells (spheroid plate); type: cell-based, human
Experimental: as §1
DMSO (control) or compound A-D was added to the NCI-H2228 cells at 10 μM or 30 nM and this investigation was performed by a similar manner described as in Example 5, except cells were cultured for 5 days after the addition of drugs.

NPM-ALK = target: T2, NPM-ALK (Homo sapiens, UniProt Q9UM73); details: reported in Laboratory investigation 2005, Vol. 85, p. 1544-1554; cited from earlier work
T2 construct: the other entry of the earlier key: NPM1 (P06748, Nucleophosmin)

[2] = target: T1, EML4-ALK fusion polypeptide v3; assay: In vitro autophosphorylation of purified EML4-ALK fusion polypeptide v3 (immunoblot, anti-phosphorylated ALK antibody); type: biochemical; parameters: expresses both EML4-ALK fusion polypeptide v3 having the FLAG tag at the N-terminus and CD8; made in house; host or cells: mouse BA/F3 cells infected with FLAG-EML4-ALKv3/pMX-iresCD8 retrovirus
Experimental: (§2) A recombinant retrovirus was produced according to a method of previous report (BBRC 356, 723-726, 2007) using FLAG-EML4-ALKv3/pMX-iresCD8. Mouse lymphatic cell line BA/F3 cells were infected therewith. The EML4-ALK fusion polypeptide v3 expressing BA/F3 cells were cultured in RPM1640 medium containing 10% of fetal bovine serum. To prepare the EML4-ALK fusion polypeptide v3, about 2×10^9 cells were collected. After washing 3 times with PBS, cells were lysed in a lysis solution (50 mM Tris.HCl (pH7.4), 150 mM NaCl, 1% Triton X100, 5 mM EDTA, 5 mM EGTA, 1 mM NaVO4, 1 mM DTT and protease inhibitor cocktail complete). The EML4-ALK fusion polypeptide v3 present in the supernatant obtained after a centrifugation was purified using ANTI-FLAG M2 Affinity Gel (SIGMA-ALDRICH Inc) according to the method described in the product information document. For washing and elution, the washing solution (50 mM Tris.HCl (pH7.4), 250 mM NaCl, 0.05% Brij35, 1 mM EDTA, 1 mM EGTA, 1 mM NaVO4, 1 mM DTT, complete) and the elution solution (50 mM Tris.HCl (pH7.4), 150 mM NaCl, 0.05% Brij35, 1 mM DTT, 0.5 mg/mL FLAG peptide) were used, respectively. Immunoblotting using anti-ALK antibody and anti FLAG M2 antibody (SIGMA-ALDRICH Inc.) and silver staining were carried out for the eluate to detect the EML4-ALK fusion polypeptide v3.
(§3) The EML4-ALK fusion polypeptide v3 purified as described above was diluted in a reaction solution (15 mM Tris HCl (pH7.4), 0.25 mM MgCl2, 0.01% Tween-20, 2 mM DTT), and then ATP was not added or ATP 20 μM was added. The respective mixtures were reacted at room temperature for 1 hour. After the reaction, the auto phosphorylated EML4-ALK fusion polypeptide v3 and the EML4-ALK fusion polypeptide v3 were detected by immunoblotting using anti-phosphorylated ALK antibody, which recognizes specifically the product phosphorylated at the 1604th tyrosine residue of ALK, and anti-ALK antibody, and quantitated by an image analysis system (VersaDoc Imaging System; Bio-Rad Inc.). […]

[3] = target: T1, EML4-ALK fusion polypeptide v3; assay: In vitro phosphorylation of peptide substrate by purified EML4-ALK fusion polypeptide v3 (HTRF KinEASE-TK); type: biochemical; parameters: expresses both EML4-ALK fusion polypeptide v3 having the FLAG tag at the N-terminus and CD8; made in house; host or cells: mouse BA/F3 cells infected with FLAG-EML4-ALKv3/pMX-iresCD8 retrovirus; details: TK substrate 1
Experimental: as §2, §3

NCI-H2228 = assay: Anti-tumor test against NCI-H2228 subcutaneous tumor in NOD/SCID mice; type: in vivo; details: 10 mg/kg orally once a day for 14 days, solvent group start day = 100% inhibition, finish day = 0%
Experimental: 3×10^6 cells of NCI-H2228 suspended in 50% BD Matrigel™ (BD Biosciences) in PBS were inoculated subcutaneously by injection to the back of 5 weeks old male NOD/SCID mice (Japan Charles River Inc.). […] Administrations were performed once a day for 14 days, and body weight and tumor size were measured every three or four day. Tumor volume was calculated using the following formula. [Tumor volume (mm^3)]=[Tumor major axis (mm)]×[tumor minor axis (mm)]^2×0.5

[4] = Mus musculus, NIH3T3, read-out: Inhibitory activity on v3 expressing 3T3 cells
[5] = Homo sapiens, NCI-H2228, read-out: Inhibitory activity on NCI-H2228 cells

T1 sequence (Q9UM73 with tags, fused parts or gaps I1461V/K1491R/D1529E): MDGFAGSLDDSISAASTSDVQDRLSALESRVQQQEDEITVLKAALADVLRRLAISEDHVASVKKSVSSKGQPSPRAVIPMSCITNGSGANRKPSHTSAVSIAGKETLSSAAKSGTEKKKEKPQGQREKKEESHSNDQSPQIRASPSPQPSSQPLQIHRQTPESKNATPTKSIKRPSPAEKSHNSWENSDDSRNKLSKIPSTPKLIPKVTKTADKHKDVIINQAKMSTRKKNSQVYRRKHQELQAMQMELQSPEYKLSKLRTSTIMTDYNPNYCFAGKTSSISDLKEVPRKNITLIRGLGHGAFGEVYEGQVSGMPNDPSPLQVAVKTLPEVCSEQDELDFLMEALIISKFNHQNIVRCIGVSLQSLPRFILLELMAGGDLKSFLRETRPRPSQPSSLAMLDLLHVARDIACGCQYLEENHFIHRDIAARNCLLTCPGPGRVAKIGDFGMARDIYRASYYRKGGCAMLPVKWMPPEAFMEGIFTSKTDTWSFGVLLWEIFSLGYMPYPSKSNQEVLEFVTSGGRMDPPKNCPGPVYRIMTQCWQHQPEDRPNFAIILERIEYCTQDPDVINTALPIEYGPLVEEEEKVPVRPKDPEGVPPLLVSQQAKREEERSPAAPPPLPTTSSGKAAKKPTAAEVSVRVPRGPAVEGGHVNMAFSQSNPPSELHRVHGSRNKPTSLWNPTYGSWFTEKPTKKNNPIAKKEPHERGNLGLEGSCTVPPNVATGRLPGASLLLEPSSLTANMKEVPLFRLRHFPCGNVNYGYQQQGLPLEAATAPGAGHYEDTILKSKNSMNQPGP
T2 sequence (Q9UM73 with tags, fused parts or gaps): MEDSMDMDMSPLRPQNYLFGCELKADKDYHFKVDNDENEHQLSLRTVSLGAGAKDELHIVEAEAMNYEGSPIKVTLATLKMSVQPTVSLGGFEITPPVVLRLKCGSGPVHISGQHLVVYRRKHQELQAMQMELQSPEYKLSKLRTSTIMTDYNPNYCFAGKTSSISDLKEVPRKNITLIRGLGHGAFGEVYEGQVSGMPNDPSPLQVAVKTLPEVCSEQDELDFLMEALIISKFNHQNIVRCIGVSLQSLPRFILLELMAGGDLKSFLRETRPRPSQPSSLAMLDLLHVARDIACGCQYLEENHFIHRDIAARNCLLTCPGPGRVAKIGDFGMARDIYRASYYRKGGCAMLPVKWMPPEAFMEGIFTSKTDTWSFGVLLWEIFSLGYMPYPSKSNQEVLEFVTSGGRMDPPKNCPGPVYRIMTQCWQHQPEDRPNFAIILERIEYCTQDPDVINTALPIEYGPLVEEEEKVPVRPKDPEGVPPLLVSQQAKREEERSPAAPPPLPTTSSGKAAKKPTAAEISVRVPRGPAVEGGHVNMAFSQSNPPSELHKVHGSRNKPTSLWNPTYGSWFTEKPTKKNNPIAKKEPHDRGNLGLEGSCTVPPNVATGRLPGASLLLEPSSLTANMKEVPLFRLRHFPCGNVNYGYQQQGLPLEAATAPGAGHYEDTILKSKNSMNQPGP

- Inhibition on autophosphorylation (v3 expressing 3T3 cells) ([1]; final concentration 10 μM): 94%
- Inhibition on autophosphorylation ([2]; final concentration 10 μM): 100%
- Inhibition on peptide substrate ([3]; final concentration 10 μM): 98%
SMILES: COc1cc2ncnc(Nc3ccc(O)c(Br)c3)c2cc1OC [A, 4-[(3′-Bromo-4′-hydroxyphenyl)amino]-6,7-dimethoxyquinazoline]
- Inhibitory activity on v3 expressing 3T3 cells (v3 expressing 3T3 cells; final concentration 10 μM, 3 days, cell number at Day 0 = 100% inhibition, Day 3 = 0%): 172%
- Inhibitory activity on NCI-H2228 cells (NCI-H2228 cells; final concentration 10 μM, 5 days, cell number at Day 0 = 100% inhibition, Day 5 = 0%): 164%
- Inhibition of the activity of NPM-ALK (NPM-ALK): inhibit the activity of NPM-ALK

- inhibition at 10 µM ([1]; NIH3T3, final concentration 10 μM): 76%
- inhibition at 10 µM ([2]; final concentration 10 μM): 100%
- inhibition at 10 µM ([3]; final concentration 10 μM): 77%
SMILES: O=C(COc1ccc(OC(F)(F)F)cc1)NCc1nc(C(=O)NCCc2cccc(Cl)c2)cs1 [B, N-[2-(3-chlorophenyl)ethyl]-2-[({[4-(trifluoromethoxy)phenoxy]acetyl}amino)methyl]-1,3-thiazole-4-carboxamide]
- inhibition at 10 µM (v3 expressing 3T3 cells; [4]): 53%
- inhibition at 10 µM (NCI-H2228 cells; [5]): 102%

SMILES: COc1cc(N2CCC(N3CCN(C)CC3)CC2)ccc1Nc1ncc(Cl)c(Nc2ccccc2S(=O)(=O)C(C)C)n1 [Compound C, 5-chloro-N^4-[2-(isopropylsulfonyl)phenyl]-N^2-{2-methoxy-4-[4-(4-methylpiperazin-1-yl)piperidin-1-yl]phenyl}pyrimidine-2,4-diamine]
- inhibition at 0.03 µM (v3 expressing 3T3 cells; [4]): 182%
- inhibition at 0.03 µM (NCI-H2228 cells; [5]): 137%
- Inhibition rate of tumor growth (tumor volume) of NCI-H2228 (NCI-H2228): 132%

- inhibition at 0.01 µM ([1]; NIH3T3, final concentration 10 nM): 106%
- inhibition at 0.01 µM ([2]; final concentration 10 nM): 107%
- inhibition at 0.01 µM ([3]; final concentration 10 nM): 98%
SMILES: CNS(=O)(=O)c1ccccc1Nc1nc(Nc2ccc(N3CCN(C)CC3)cc2OC)ncc1Br [D, 2-[(5-bromo-2-{[2-methoxy-4-(4-methylpiperazin-1-yl)phenyl]amino}pyrimidin-4-yl)amino]-N-methylbenzenesulfonamide]
- inhibition at 0.03 µM (v3 expressing 3T3 cells; [4]): 206%
- inhibition at 0.03 µM (NCI-H2228 cells; [5]): 141%

SMILES: COc1cc2ncnc(Nc3ccc(O)cc3)c2cc1OC [WHI-P131, 4-(4′-Hydroxyphenyl)amino-6,7-dimethoxyquinazoline]
- Inhibition of the activity of NPM-ALK (NPM-ALK): inhibit the activity of NPM-ALK
